Experimental data from patent US20150306226A1, “COMPOSITION” (RATIOPHARM GMBH, priority 2012, published 2015).
In brackets after ≈: the same amount, converted by molar mass.

Assay: solubility in aqueous buffer
Assay type: physicochemical
Details: aqueous buffer pH 7.4, room temperature
Protocol: Enantiomerically pure compound (I) has low solubility in aqueous solution. In aqueous buffer pH 7.4 the solubility measured at room temperature is about 0.01 mg/ml. Poor solubility typically leads to poor oral bioavailability, fed/fasted variations in bioavailability, cumbersome and inconvenient dosage forms, and may necessitate the use of harsh solubilising agents that are associated with adverse side effects.

solubility: ~10 µg/mL (≈ 21.7 µM)
SMILES: CCOc1cc(C(CS(C)(=O)=O)N2C(=O)c3cccc(NC(C)=O)c3C2=O)ccc1OC (stereo not shown) [compound (I), N-[2-[1-(3-ethoxy-4-methoxyphenyl)-2-(methylsulfonyl)ethyl]-1,3-dioxo-2,3-dihydro-1H-isoindol-4-yl]acetamide]
